In assay [1] the target is T1, human Nav1.5 channels stably expressed in HEK 293 cells (Homo sapiens, UniProt Q14524).
T1 construct: expressed in transfected cells; host or cells: HEK 293
Description: PatchXpress 7000 automated patch-clamp, inactivated state block. The class given is cell-based. Conditions: PatchXpress technique. On the procedure: (§1) For all electrophysiology experiments, offline analysis was used to correct for current rundown and to determine percent inhibition as a function of drug concentration. IC50 values were determined by fitting to the Hill equation.
(§2) Sodium Current Measurements on the PatchXpress 7000®:
(§3) To measure inactivated state block of sodium channels, test compounds were characterized in an automated PatchXpress® assay (Molecular Devices) using a double-pulse protocol on human Nav1.7 and Nav1.5 channels stably expressed in HEK 293 cells. Cells were held at a potential 20 mV negative to V0.5 inact. An 8000 ms pre-pulse 7 mV positive to V0.5 inact was given followed by a hyperpolarizing 2 ms pulse to −120 mV and a 20 ms test pulse to −20 mV. Protocol was applied to cells in the absence, presence of compound and after washout. The temperature of PatchXpress instruments was maintained at 22° C. The following recording solutions were used. Internal solution (mM): 30 CsCl, 5 HEPES, 10 EGTA, 120 CsF, 5 NaF, 2 MgCl2. External solution (mM): 120 NMDG, 40 NaCl, 1 KCl, 0.5 MgCl2, 5 HEPES, 2.7 CaCl2.

Assay [2] concerns the target T2, human Nav1.7 channels stably expressed in HEK 293 cells (Homo sapiens, UniProt Q15858).
T2 construct: expressed in transfected cells; host or cells: HEK 293
The description is as above. It is filed as cell-based. Particulars: PatchXpress technique; read-out: Nav 1.7 potency. As to the method: as §1, §2, §3

T1 sequence (Q14524 whole entry): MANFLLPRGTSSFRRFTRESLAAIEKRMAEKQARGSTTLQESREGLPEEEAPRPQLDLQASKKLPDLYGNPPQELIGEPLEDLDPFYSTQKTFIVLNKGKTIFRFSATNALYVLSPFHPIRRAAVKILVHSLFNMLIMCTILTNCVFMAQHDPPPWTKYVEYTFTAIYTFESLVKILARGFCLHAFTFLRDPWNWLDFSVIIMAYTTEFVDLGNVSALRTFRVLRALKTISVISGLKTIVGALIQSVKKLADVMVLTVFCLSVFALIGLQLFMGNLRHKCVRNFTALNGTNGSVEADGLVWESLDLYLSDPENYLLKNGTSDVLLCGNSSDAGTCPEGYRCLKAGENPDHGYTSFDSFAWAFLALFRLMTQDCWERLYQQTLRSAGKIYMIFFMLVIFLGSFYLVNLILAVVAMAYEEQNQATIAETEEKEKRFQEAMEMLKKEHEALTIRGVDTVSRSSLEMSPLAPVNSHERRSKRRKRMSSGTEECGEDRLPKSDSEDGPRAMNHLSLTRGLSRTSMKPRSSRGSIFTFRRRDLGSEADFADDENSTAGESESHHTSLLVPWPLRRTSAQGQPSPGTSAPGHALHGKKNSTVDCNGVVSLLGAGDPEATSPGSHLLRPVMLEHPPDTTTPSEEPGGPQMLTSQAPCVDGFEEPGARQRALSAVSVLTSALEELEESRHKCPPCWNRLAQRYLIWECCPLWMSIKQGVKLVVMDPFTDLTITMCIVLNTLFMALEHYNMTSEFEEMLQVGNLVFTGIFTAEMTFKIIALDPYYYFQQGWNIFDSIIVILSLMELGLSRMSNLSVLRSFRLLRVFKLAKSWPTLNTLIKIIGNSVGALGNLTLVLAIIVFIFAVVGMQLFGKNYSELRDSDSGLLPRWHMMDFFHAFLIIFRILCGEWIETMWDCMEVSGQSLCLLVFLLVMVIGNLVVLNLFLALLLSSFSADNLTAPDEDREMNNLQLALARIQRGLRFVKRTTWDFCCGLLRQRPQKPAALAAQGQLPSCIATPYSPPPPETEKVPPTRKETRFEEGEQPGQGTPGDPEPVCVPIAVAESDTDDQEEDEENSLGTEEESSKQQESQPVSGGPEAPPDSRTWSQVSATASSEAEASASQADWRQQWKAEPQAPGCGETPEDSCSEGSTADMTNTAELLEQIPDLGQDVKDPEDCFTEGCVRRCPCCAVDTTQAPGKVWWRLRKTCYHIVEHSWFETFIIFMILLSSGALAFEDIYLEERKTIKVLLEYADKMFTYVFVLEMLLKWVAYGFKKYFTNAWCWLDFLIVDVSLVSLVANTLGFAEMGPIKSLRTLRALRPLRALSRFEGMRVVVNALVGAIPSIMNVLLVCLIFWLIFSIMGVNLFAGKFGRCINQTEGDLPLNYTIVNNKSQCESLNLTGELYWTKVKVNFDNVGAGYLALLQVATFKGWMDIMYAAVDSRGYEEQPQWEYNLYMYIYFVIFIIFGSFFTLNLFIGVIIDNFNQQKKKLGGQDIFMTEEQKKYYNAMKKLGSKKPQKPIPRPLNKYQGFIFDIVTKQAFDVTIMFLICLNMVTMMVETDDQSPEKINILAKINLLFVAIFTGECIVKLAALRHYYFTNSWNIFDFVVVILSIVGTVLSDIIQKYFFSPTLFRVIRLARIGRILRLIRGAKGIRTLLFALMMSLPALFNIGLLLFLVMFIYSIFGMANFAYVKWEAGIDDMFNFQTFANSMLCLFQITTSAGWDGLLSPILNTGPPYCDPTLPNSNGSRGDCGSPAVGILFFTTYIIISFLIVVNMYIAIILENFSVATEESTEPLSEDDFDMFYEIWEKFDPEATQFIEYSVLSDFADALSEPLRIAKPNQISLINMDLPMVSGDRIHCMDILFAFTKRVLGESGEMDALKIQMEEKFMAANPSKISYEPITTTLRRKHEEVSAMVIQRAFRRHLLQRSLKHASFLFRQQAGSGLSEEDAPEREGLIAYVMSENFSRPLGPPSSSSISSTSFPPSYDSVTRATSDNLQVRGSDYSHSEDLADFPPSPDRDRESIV
T2 sequence (Q15858 whole entry): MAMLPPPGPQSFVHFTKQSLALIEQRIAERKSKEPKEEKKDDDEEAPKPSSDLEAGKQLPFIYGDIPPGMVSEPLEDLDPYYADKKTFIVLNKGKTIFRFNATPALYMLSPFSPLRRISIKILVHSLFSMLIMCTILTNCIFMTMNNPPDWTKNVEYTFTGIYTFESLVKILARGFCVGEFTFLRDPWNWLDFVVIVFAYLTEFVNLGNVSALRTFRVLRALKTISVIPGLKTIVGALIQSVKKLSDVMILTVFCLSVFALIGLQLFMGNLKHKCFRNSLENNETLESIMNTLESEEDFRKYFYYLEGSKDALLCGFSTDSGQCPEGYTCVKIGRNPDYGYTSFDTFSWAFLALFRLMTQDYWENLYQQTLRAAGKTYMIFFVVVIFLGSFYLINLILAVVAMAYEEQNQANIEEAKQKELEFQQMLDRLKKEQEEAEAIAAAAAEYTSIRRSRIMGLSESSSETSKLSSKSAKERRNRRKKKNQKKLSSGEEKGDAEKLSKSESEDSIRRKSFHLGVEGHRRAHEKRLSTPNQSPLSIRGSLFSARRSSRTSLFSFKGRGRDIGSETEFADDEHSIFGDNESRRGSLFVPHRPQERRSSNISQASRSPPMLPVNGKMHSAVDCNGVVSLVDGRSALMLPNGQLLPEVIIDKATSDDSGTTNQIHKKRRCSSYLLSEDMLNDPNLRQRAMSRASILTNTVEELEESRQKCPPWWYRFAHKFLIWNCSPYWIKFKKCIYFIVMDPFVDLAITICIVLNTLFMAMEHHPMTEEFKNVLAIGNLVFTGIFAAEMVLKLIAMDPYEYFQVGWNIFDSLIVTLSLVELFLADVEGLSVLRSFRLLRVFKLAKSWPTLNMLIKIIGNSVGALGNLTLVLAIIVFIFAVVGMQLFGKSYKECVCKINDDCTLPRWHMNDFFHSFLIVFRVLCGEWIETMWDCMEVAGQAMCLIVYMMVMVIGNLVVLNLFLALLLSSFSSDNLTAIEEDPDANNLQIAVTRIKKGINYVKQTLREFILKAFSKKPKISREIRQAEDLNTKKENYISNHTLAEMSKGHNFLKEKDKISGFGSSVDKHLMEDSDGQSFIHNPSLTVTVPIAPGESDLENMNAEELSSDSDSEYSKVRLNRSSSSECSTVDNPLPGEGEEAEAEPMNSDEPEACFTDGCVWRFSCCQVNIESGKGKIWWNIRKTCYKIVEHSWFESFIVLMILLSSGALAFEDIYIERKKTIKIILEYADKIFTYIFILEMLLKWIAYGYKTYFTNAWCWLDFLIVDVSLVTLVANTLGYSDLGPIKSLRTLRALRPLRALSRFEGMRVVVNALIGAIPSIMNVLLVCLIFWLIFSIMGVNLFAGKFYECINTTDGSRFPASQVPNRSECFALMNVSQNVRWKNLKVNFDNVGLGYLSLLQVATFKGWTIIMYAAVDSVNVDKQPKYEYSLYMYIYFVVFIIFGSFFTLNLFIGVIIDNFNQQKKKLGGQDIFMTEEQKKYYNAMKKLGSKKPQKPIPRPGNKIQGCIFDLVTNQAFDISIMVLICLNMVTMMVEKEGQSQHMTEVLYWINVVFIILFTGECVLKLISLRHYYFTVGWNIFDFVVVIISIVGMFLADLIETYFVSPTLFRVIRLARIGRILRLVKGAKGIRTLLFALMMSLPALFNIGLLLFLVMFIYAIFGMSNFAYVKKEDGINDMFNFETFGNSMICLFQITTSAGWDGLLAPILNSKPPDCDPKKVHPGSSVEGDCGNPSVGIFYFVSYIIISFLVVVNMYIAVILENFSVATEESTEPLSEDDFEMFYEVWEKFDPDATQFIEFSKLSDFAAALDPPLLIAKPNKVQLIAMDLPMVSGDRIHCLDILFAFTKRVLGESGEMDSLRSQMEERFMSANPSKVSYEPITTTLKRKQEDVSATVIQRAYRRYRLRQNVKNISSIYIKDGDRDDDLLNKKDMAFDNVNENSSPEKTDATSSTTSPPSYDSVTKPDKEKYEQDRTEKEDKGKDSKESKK

Regarding `NC1CCc2cccc(Cn3ncc4cc(S(=O)(=O)Nc5nccs5)c(F)cc43)c2C1` (single isomer, unassigned) [Ex-26, (R or S)-1-[(7-amino-5,6,7,8-tetrahydronaphthalen-1-yl)methyl]-6-fluoro-N-1,3-thiazol-2-yl-1H-indazole-5-sulfonamide], in assay [1], the “Ratio 1.5:1.7 = Nav 1.5 potency (nM)/Nav1.7 potency (nM)” value (shortened to “Ratio 1.5:1.7 = Nav 1.5 potency”) is given as 3231. The IC50 in assay [2] is 5 nM.
For the compound `NC1CCc2cccc(Cn3ncc4cc(S(=O)(=O)Nc5cccc(F)n5)c(F)cc43)c2C1` (single isomer, unassigned) [Ex-31, (R or S)-1-[(7-amino-5,6,7,8-tetrahydronaphthalen-1-yl)methyl]-6-fluoro-N-(6-fluoropyridin-2-yl)-1H-indazole-5-sulfonamide], in assay [1], the “Ratio 1.5:1.7 = Nav 1.5 potency” value amounted to 772. Besides, in assay [2], the IC50 is 56 nM.
On to `NCCCc1ccccc1Cn1ncc2cc(S(=O)(=O)Nc3nccs3)c(F)cc21` [Ex-27, 1-[2-(3-aminopropyl)benzyl]-6-fluoro-N-1,3-thiazol-2-yl-1H-indazole-5-sulfonamide], for which the “Ratio 1.5:1.7 = Nav 1.5 potency” value in assay [1] is 48. Also, in assay [2], the IC50 is 5 nM.
As to `C[C@H](c1cccc2c1CNCC2)n1ncc2cc(S(=O)(=O)Nc3nccs3)c(F)cc21` [Ex-28, 6-fluoro-1-[(1R)-1-(1,2,3,4-tetrahydroisoquinolin-8-yl)ethyl]-N-1,3-thiazol-2-yl-1H-indazole-5-sulfonamide], in assay [1], the “Ratio 1.5:1.7 = Nav 1.5 potency” value is 870. In assay [2], the IC50 turned out to be 25 nM.
For `NCC#Cc1ccccc1Cn1ncc2cc(S(=O)(=O)Nc3nccs3)c(F)cc21` [Ex-29, 1-[2-(3-aminoprop-1-yn-1-yl)benzyl]-6-fluoro-N-1,3-thiazol-2-yl-1H-indazole-5-sulfonamide], the “Ratio 1.5:1.7 = Nav 1.5 potency” value in assay [1] was determined as 302. In assay [2], the IC50 was 89 nM.
`O=S(=O)(Nc1nccs1)c1cc2cnn(Cc3ccccc3C3=CCNCC3)c2cc1F` [Ex-30, 6-fluoro-1-[2-(1,2,3,6-tetrahydropyridin-4-yl)benzyl]-N-1,3-thiazol-2-yl-1H-indazole-5-sulfonamide]: the “Ratio 1.5:1.7 = Nav 1.5 potency” value in assay [1] stood at 326. The IC50 in assay [2] was found to be 82 nM.
In the same order, the values of `NCCCc1ccccc1Cn1ncc2cc(S(=O)(=O)Nc3cccc(F)n3)c(F)cc21` [Ex-32, 1-[2-(3-amino-propyl)benzyl]-6-fluoro-N-(6-fluoropyridin-2-yl)-1H-indazole-5-sulfonamide] are 50 and 64 nM.
`C[C@H](c1ccccc1CCCN)n1ncc2cc(S(=O)(=O)Nc3cccc(F)n3)c(F)cc21` [Ex-33, 1-{(1R)-1-[2-(3-amino-propyl)phenyl]ethyl}-6-fluoro-N-(6-fluoropyridin-2-yl)-1H-indazole-5-sulfonamide]: in assay [1], the “Ratio 1.5:1.7 = Nav 1.5 potency” value was 228. For the same compound, the IC50 in assay [2] came to 381 nM.
Consider `NCc1ccccc1Cn1ncc2cc(S(=O)(=O)Nc3cccc(F)n3)c(F)cc21` [Ex-35, 1-[2-(aminomethyl)benzyl]-6-fluoro-N-(6-fluoropyridin-2-yl)-1H-indazole-5-sulfonamide], for which the “Ratio 1.5:1.7 = Nav 1.5 potency” value in assay [1] is on record as 53. The IC50 in assay [2] turned out to be 568 nM.
`C[C@H](c1cccc2c1CNCC2)n1ncc2cc(S(=O)(=O)Nc3cccc(F)n3)c(F)cc21` [Ex-37, 6-fluoro-N-(6-fluoropyridin-2-yl)-1-[(1R)-1-(1,2,3,4-tetrahydroisoquinolin-8-yl)ethyl]-1H-indazole-5-sulfonamide]: in assay [1], the “Ratio 1.5:1.7 = Nav 1.5 potency” value is recorded as 64. Also, in assay [2], the IC50 worked out at 372 nM.
On to `NCC(F)c1ccccc1Cn1ncc2cc(S(=O)(=O)Nc3cccc(F)n3)c(F)cc21` (centres unmarked) [Ex-38, 1-[2-(2-amino-1-fluoroethyl)benzyl]-6-fluoro-N-(6-fluoropyridin-2-yl)-1H-indazole-5-sulfonamide], for which the “Ratio 1.5:1.7 = Nav 1.5 potency” value in assay [1] amounted to 162. In addition, in assay [2], the IC50 is 185 nM.
For `NC1Cc2cccc(Cn3ncc4cc(S(=O)(=O)Nc5cccc(F)n5)c(F)cc43)c2C1` (centres unmarked) [Ex-39, 1-[(2-amino-2,3-dihydro-1H-inden-4-yl)methyl]-6-fluoro-N-(6-fluoropyridin-2-yl)-1H-indazole-5-sulfonamide], the “Ratio 1.5:1.7 = Nav 1.5 potency” value in assay [1] came out at 129. Moreover, the IC50 in assay [2] amounted to 232 nM.
As to `C[C@H](c1ccccc1C1CNC1)n1ncc2cc(S(=O)(=O)Nc3cccc(F)n3)c(F)cc21` [Ex-40, 1-[(1R)-1-(2-azetidin-3-ylphenyl)ethyl]-6-fluoro-N-(6-fluoropyridin-2-yl)-1H-indazole-5-sulfonamide], the “Ratio 1.5:1.7 = Nav 1.5 potency” value in assay [1] amounted to 11. The IC50 in assay [2] stood at 775 nM.
In the same order, the values of `O=S(=O)(Nc1cccc(F)n1)c1cc2cnn(Cc3ccccc3I)c2cc1F` [Ex-41, 6-fluoro-N-(6-fluoropyridin-2-yl)-1-(2-iodobenzyl)-1H-indazole-5-sulfonamide] are 7 and 1070 nM.
In the case of `O=S(=O)(Nc1cccc(F)n1)c1cc2cnn(Cc3cccc4c3CNC4)c2cc1F` [Ex-42, 1-(2,3-dihydro-1H-isoindol-4-ylmethyl)-6-fluoro-N-(6-fluoropyridin-2-yl)-1H-indazole-5-sulfonamide], the “Ratio 1.5:1.7 = Nav 1.5 potency” value in assay [1] stood at 36. Besides, in assay [2], the IC50 came to 825 nM.
For `C[C@H](c1ccccc1C1CCNCC1)n1ncc2cc(S(=O)(=O)Nc3cccc(F)n3)c(F)cc21` [Ex-43, 6-fluoro-N-(6-fluoropyridin-2-yl)-1-[(1R)-1-(2-piperidin-4-ylphenyl)ethyl]-1H-indazole-5-sulfonamide], in that order: 16 and 584 nM.
For the compound `NCC#Cc1ccccc1Cn1ncc2cc(S(=O)(=O)Nc3cccc(F)n3)c(F)cc21` [Ex-44, 1-[2-(3-aminoprop-1-yn-1-yl)benzyl]-6-fluoro-N-(6-fluoropyridin-2-yl)-1H-indazole-5-sulfonamide], the “Ratio 1.5:1.7 = Nav 1.5 potency” value in assay [1] is on record as 10. The IC50 in assay [2] was determined as 2530 nM.
For `CC(C)(N)CC#Cc1ccccc1Cn1ncc2cc(S(=O)(=O)Nc3cccc(F)n3)c(F)cc21` [Ex-45, 1-[2-(4-amino-4-methylpent-1-yn-1-yl)benzyl]-6-fluoro-N-(6-fluoropyridin-2-yl)-1H-indazole-5-sulfonamide], in that order: 18 and 2040 nM.
In the case of `C[C@H](c1ccccc1C#CCN)n1ncc2cc(S(=O)(=O)Nc3cccc(F)n3)c(F)cc21` [Ex-46, 1-{(1R)-1-[2-(3-aminoprop-1-yn-1-yl)phenyl]ethyl}-6-fluoro-N-(6-fluoropyridin-2-yl)-1H-indazole-5-sulfonamide], the “Ratio 1.5:1.7 = Nav 1.5 potency” value in assay [1] is 41. Moreover, in assay [2], the IC50 is 423 nM.
Take `C[C@H](c1ccccc1C#C[C@@H]1CCCC[C@@H]1N)n1ncc2cc(S(=O)(=O)Nc3cccc(F)n3)c(F)cc21` [Ex-47, 1-[(1R)-1-(2-{[(1S,2S)-2-amino-cyclohexyl]ethynyl}phenyl)ethyl]-6-fluoro-N-(6-fluoropyridin-2-yl)-1H-indazole-5-sulfonamide]: the “Ratio 1.5:1.7 = Nav 1.5 potency” value in assay [1] amounted to 15. In addition, the IC50 in assay [2] worked out at 546 nM.
In the case of `C[C@H](c1ccccc1C1=CCNCC1)n1ncc2cc(S(=O)(=O)Nc3cccc(F)n3)c(F)cc21` [Ex-48, 6-fluoro-N-(6-fluoropyridin-2-yl)-1-{(1R)-1-[2-(1,2,3,6-tetrahydropyridin-4-yl)phenyl]ethyl}-1H-indazole-5-sulfonamide], in assay [1], the “Ratio 1.5:1.7 = Nav 1.5 potency” value was determined as 5. In addition, the IC50 in assay [2] worked out at 1120 nM.
For `O=S(=O)(Nc1cccc(F)n1)c1cc2cnn(Cc3cccc4c3CNCC4F)c2cc1F` (centres unmarked) [Ex-49, 6-fluoro-N-(6-fluoropyridin-2-yl)-1-[(4-fluoro-1,2,3,4-tetrahydro-isoquinolin-8-yl)methyl]-1H-indazole-5-sulfonamide], in that order: 45 and 661 nM.
For `C[C@H](c1ccccc1C#C[C@H]1CCCC[C@H]1N)n1ncc2cc(S(=O)(=O)Nc3cccc(F)n3)c(F)cc21` [Ex-50, 1-[(1R)-1-(2-{[(1R,2R)-2-amino-cyclohexyl]ethynyl}phenyl)ethyl]-6-fluoro-N-(6-fluoropyridin-2-yl)-1H-indazole-5-sulfonamide], in assay [1], the “Ratio 1.5:1.7 = Nav 1.5 potency” value is recorded as 17. Besides, the IC50 in assay [2] is 689 nM.
For `NC1CCc2cccc(Cn3ncc4cc(S(=O)(=O)Nc5ncc(Cl)s5)c(F)cc43)c2C1` (centres unmarked) [Ex-53, 1-[(7-amino-5,6,7,8-tetrahydronaphthalen-1-yl)methyl]-N-(5-chloro-1,3-thiazol-2-yl)-6-fluoro-1H-indazole-5-sulfonamide], in that order: 1193 and 8 nM.
In the case of `C[C@H](c1cccc2c1CNCC2)n1ncc2cc(S(=O)(=O)Nc3ncc(Cl)s3)c(F)cc21` [Ex-54, N-(5-chloro-1,3-thiazol-2-yl)-6-fluoro-1-[(1R)-1-(1,2,3,4-tetrahydroisoquinolin-8-yl)ethyl]-1H-indazole-5-sulfonamide], the “Ratio 1.5:1.7 = Nav 1.5 potency” value in assay [1] is reported as 50. Also, the IC50 in assay [2] is 137 nM.

For the origin of these results see patent US9388179B2, “N-substituted indazole sulfonamide compounds with selective activity in voltage-gated sodium channels” (Merck Sharp & Dohme Corp., priority 2012, dated 2016).
